Tested on: cabbage moth (Plutella xylostella)
Assay: Cabbage moth mortality test on sprayed cabbage seedling (Test method 23)
Assay type: in vivo
Details: 500 ppm, 20 mL/seedling sprayed on cabbage; 5 second instar larvae; after 5 days
Experimental: The present compound is made to a formulation according to a similar method to that described in the Formulation Example 6, and thereto is added water containing 0.03 v/v % of a spreader to prepare a diluted solution containing a prescribed concentration of the test compound.
Cabbage (Brassicae oleracea) seedling (on the developmental stage of the second to third true leaf) is planted in a cup, and the diluted solutions are sprayed into the seedling at a ratio of 20 mL/seedling. Thereafter, the stem and leaf of the seedling is cut out and is then installed into the container that is covered with the filter paper. Five (5) cabbage moth (Plutella xylostella) at the second instar larval stages are released into the cup. After 5 days, the surviving insects are counted, and the mortality of insects is calculated by the following equation. Mortality (%)={1−the number of the surviving insects/5}×100

COC=C(Cc1cc(OCc2ccccc2)ccc1C)C(=O)OC [compound 28]
mortality: 100%
